The source of these data is patent publication US20050180954A1, “Drug for treating bone disorders” (priority 1995, published 2005).

Format in all cases: cell-based, mouse
Experiment [1] relates to osteoclast like cells from bone marrow cells of mice of C 57 BL/6 strain. The experiment is described as follows: Formation of osteoclast like cells from bone marrow cells of mice of C 57 BL/6 strain. The settings on record: Example 2, C 57 BL/6 strain bone marrow cells. How it is done: (§1) The number of viable bone marrow cells was counted using tripam blue dye exclusion test and the bone marrow cells were diluted with α-MEM containing 10% JCS, 10^−8M Vit D3, 10^−7 M dexamethasone to a population density of 1.5×10^6 cells/ml, followed by placing the resulting suspension in each well in 24-well plates in an amount of 0.45 ml/well. To each well, 50 μl of the medium containing varying concentration of IFN was added to make the volume to 0.5 ml/well and culturing was begun. At every three days, 0.4 ml of the culture medium was removed from each well and 0.4 ml of fresh medium (the above-mentioned medium containing the respective concentration of IFN) was added. On Day 8 from the beginning of the culturing, the medium was removed and the cells were fixed with mixed solution of ethyl alcohol and diethyl ether (1:1) and the cells were stained with tartrate resistant acid phosphatase (TRAP), followed by counting TRAP positive multinuclear cells with a phase contrast microscope. […] The inhibition effect of IFNγ was stronger than that of IFNβ. That is, the inhibition concentration IC50 of IFNγ was not more than 0.1 units/ml, and that of IFNβ was 0.2 units/ml.
In place of mice of ddy strain, male mice of C 57 BL/6 of 7 weeks old were used. The mice were exanguinated to death under ether anesthesia and the femur and the tibia of hind legs were collected from each mouse. The connective tissues on the surfaces of the bones were carefully removed, and both ends of each bone were cut off with scissors. The bone marrow cells were suspended in α-MEM containing 10% JCS and the suspension was flushed out through a 25 G needle attached to a syringe to collect the suspension in a centrifugal tube. The collected suspension was washed by centrifugation in the same medium at 2000 rpm at 4° C. for 5 minutes. The precipitated cells were dispersed in the above-mentioned medium and the washing by centrifugation was repeated twice. Formation of osteoclast like cells was measured by the same method as in Example 1.

The test system of experiment [2] is MC3T3-E1 cells. Put plainly: Quantification of calcium in calcified foci of MC3T3-E1. Particulars: MC3T3-E1, Day 14. How it is done: MC3T3-E1 cells were placed in each well in 24-well plates in an amount of 50,000 cells/well and cultured to confluency. The medium was removed and fresh α-MEM containing 10% JCS, 50 μg/ml of L-ascorbic acid and 10 mM β-glycerophosphate was added in an amount of 0.9 ml/well, followed by adding 0.1 ml/well of medium containing varying concentration of IFN. The medium was replaced with IFN-free medium every 4 days. On Day 14, the medium was removed and the cells were lightly washed with Hank's solution. Anhydrous ethanol was added in an amount of 1 ml/well and fixation was carried out at room temperature for 15 minuets. Then the anhydrous ethanol was replaced with fresh anhydrous ethanol in an amount of 1 ml/well and 5 minutes later, each well was dried in the air. Then 1N hydrochloric acid was added in an amount of 1 ml/well and extraction was carried out at room temperature for 30 minutes. The total contents of each well were transferred to an Eppendorf tube and centrifuged at 1800×g at 4° C. for 10 minutes The amount of calcium in the supernatant was measured by Calcium C Test Wako and the amount of inorganic phosphorus in the supernatant was measured by Phospha B Test Wako. […] The IC50 value was as low as about 10 units/ml (FIG. 5).

Experiment [3] concerns MC3T3-E1 cells. The experiment is described as follows: Proliferation of murine osteoblastic cells MC3T3-E1 (in vitro single administration). How it is done:
Murine osteoblast like cells MC3T3-E1 originated from C 57 BL/6 mouse (Kodama et al., Jap. J. Oral Biol., 23, 899, 1982) were washed with PBS(−) and the cells were dissociated by incubation in PBS(−) containing 0.1% pronase (Actinase E, Kaken Pharmaceuticals Co.), followed by dispersing the cells in α-MEM containing 10% JCS and 50 μg/ml of L-ascorbic acid (ASA). The ability to promote proliferation of cells was evaluated as follows. That is, MC3T3-E1 cells were placed in each well in 24-well plates (Corning) in an amount of 5000 cells/well. Then each IFN dilution was added to each well in an amount of 0.1 ml/well, and the culturing was begun. On Day 2, the medium was removed and the each IFN dilution was added in an amount of 0.5 ml/well (total amount of liquid: 0.5 ml/well). On Day 6, the medium was removed and the cells were washed with PBS(−) and a mixed enzyme solution of 0.1% pronase/0.1% collagenase was added to each well in an amount of 200 μl/well, followed by allowing to react at 37° C. for 15 minutes. Then α-MEM containing 10% fetal calf serum (Gibco, hereinafter referred to as “FCS” for short) was added in an amount of 300 μl/well to disperse the cells therein and the number of the cells was counted with a Coulter counter.

The test system of experiment [4] is MC3T3-E1 cells. The experiment is described as follows: Mineralization of murine osteoblasts, Von Kossa stain (in vitro single administration). Particulars: Day 14. How it is done: As the parameters for evaluation of differentiation ability, alkaline phosphatase (ALPase) and mineralization were employed. Detection of alkaline phosphatase which is a marker of differentiation of osteoblasts was carried out on Day 8 from the beginning of the culturing by staining method. Evaluation of mineralization was carried out as follows. That is, MC3T3-E1 cells were placed in each well of 24-well plates in an amount of 50,000 cells/ml (10 times in the case of anti-cell test in Example 3). On Day 4, after confirming that the cells sufficiently reached confluency, the medium was discarded and fresh α-MEM containing 10% JCS, 50 μg/ml of L-ascorbic acid and 10 mM β-glycerophosphate was added in an amount of 0.9 ml/well, followed by adding medium containing varying concentration of IFN. Four days later, the medium was replaced with IFN-free medium, and the medium was replaced with IFN-free medium every 4 days. On Day 14, Von Kossa stain was performed to visualize the calcified foci. Expression of alkaline phosphatase activity which is a differentiation marker is an indispensable step to the subsequent mineralization.

Experiment [5] relates to osteoclast like cells from bone marrow cells of mice of ddy strain. Put plainly: Formation of osteoclast like cells from bone marrow cells of mice of ddy strain. As to the method:
Bone marrow cells were prepared in accordance with the method by Takahashi et al (Takahashi, N. et al., Endocrinology, 122, 1373, 1988). Male mice of ddy strain of 7 weeks old were exanguinated to death under ether anesthesia and the femur and the tibia of hind legs were collected from each mouse. The connective tissues on the surfaces of the bones were carefully removed, and both ends of each bone were cut off with scissors. The bone marrow cells were suspended in α-Minimum Essential Medium (α-MEM, Nissui Pharmaceuticals Co.) containing 10% pre-colostrum new born calf serum (Mitsubishi Chemical, hereinafter referred to as “JCS” for short) and the suspension was flushed out through a 25 G needle attached to a syringe to collect the suspension in a centrifugal tube. The collected suspension was washed by centrifugation in the same medium at 2000 rpm at 4° C. for 5 minutes. The precipitated cells were dispersed in the above-mentioned medium and the washing by centrifugation was repeated twice, thereby preparing bone marrow cells. Murine IFN-α (hereinafter referred to as “MuIFNα” for short), Lot. B13010, 106 units/ml/vial (Calbiochem-Novabiochem International, San Diego, Calif.), murine IFN-β (hereinafter referred to as “MuIFNβ” for short), Lot M-0034, 10 units/ml/vial (Toray Industries, Inc.) and murine IFNγ (hereinafter referred to as “MuIFNγ” for short), Lot 254F3, 2.06×10^6 units/ml (Genentech, Calif.) were respectively dissolved in 10% JCS-containing α-MEM (Nissui Pharmaceuticals Co.) to the desired concentrations. Active vitamin D3 ([…], Wako Pure Chemical Industries, Ltd., hereinafter referred to as “Vit D3” for short) was dissolved in argon-saturated ethanol, and the obtained solution was diluted so as to attain the final ethanol concentration of 0.1% in all of the culture systems.
as §1
The effects of the three murine IFNs, that is, MuIFNβ, γ and α in terms of abilities to inhibit formation of osteoclast like cells from bone marrow cells in mice of ddy strain were compared. The test was carried out as in Example 1. All of the murine IFNs inhibited the formation of osteoclast like cells, and the effect was strong in the order of γ, β and α. […] Thus, the activity of IFNα to inhibit formation of osteoclasts was about 1/20 of that of IFNβ and about not more than 1/100 of that of IFNγ.

In the case of “MuIFNγ: murine interferon γ, standard product Lot 254F3, provided by Genentech”, in experiment [1], the “inhibition of formation of osteoclast like cells” value is recorded as “strongly inhibited formation of osteoclast like cells”. Also, in experiment [1] (Day 8), the “IC50 of formation inhibition of osteoclast like cells” value came to 1.5 units/ml. Also, the “calcium deposition smaller than the control” value in experiment [2] (1000 units/ml) is given as 70%. Moreover, the “IC50 value of inhibition of calcium deposition” value in experiment [2] is “about 10 units/ml”. For the same substance, the “inhibition of proliferation of MC3T3-E1 cells” value in experiment [3] (10,000 units/ml, cell count on Day 6) is on record as “about 30%”. Also, the “dose from which slight inhibition of proliferation was observed” value in experiment [3] (MC3T3-E1, Day 6) was 1 unit/ml. Further, in experiment [4], the “concentration at which the inhibition effect on mineralization was expressed” value is on record as 10 units/ml; the “influence on mineralization (calcified foci, Von Kossa stain)” value is “strong and dose dependent inhibition action on mineralization”. In experiment [4] (Von Kossa), the “IC50 value of inhibition of mineralization” value is given as 3-4 units/ml. Besides, the “inhibition of formation of osteoclast like cells” value in experiment [5] (Example 1, Day 8, TRAP positive multinuclear cells) is “strongly inhibited formation of osteoclast like cells”. For the same substance, the “inhibition concentration IC50 of formation of osteoclast like cells” value in experiment [5] (Example 1, Vit D3 + dexamethasone, Day 8, TRAP positive multinuclear cells) was “not more than 0.1 units/ml”. Further, the “IC50 of inhibition of formation of osteoclast like cells” value in experiment [5] (Example 8 comparison of three murine IFNs) is “not more than 0.1 units/ml”.
